Measured values: patent US9556165B2 (priority 2012, dated 2017)
In brackets after ≈: the same amount, converted by molar mass.

Assays:
Assay in all cases: MIC determination, broth microdilution (CLSI)
Assay type in all cases: cell-based
S. maltophilia ICB7569 = conditions: Stenotrophomonas maltophilia, ICB7569, strain 10
E. coli J62-TEM-3 = conditions: Escherichia coli, J62TEM3, read-out: strain 18 MIC, strain 18
E. coli ATCC25922 = conditions: Escherichia coli, ATCC25922, strain 1
A. baumannii ATCC15308 = conditions: Acinetobacter baumannii, ATCC15308, strain 9
K. pneumoniae 60 = conditions: Klebsiella pneumoniae, 60, strain 2
[1] = tested on: P. aeruginosa 2297 (AmpC wt); conditions: Pseudomonas aeruginosa, strain 7
P. aeruginosa PAO1 = conditions: Pseudomonas aeruginosa, PAO1, strain 6
strain 19 = tested on: strain 19
strain 21 = tested on: strain 21
E. coli J62 = conditions: Escherichia coli, J62, strain 17; read-out: strain 17 MIC
[2] = tested on: P. aeruginosa 2297-con (AmpC derepressed); conditions: Pseudomonas aeruginosa, read-out: strain 8 MIC, strain 8
strain 20 = tested on: strain 20
E. cloacae 34654 = conditions: Enterobacter cloacae, 34654, strain 3
S. pneumoniae 113 = conditions: Streptococcus pneumoniae, 113, strain 14; read-out: strain 14 MIC
M. morganii 126/3048 = conditions: Morganella morganii, 126/3048, strain 5
C. freundii K21/3034 = conditions: Citrobacter freundii, K21/3034, strain 4

| Structure (SMILES) | MIC (S. maltophilia ICB7569) [µg/mL] | MIC (E. coli J62-TEM-3) [µg/mL] | MIC (E. coli ATCC25922) [µg/mL] | MIC (A. baumannii ATCC15308) [µg/mL] | MIC (K. pneumoniae 60) [µg/mL] | MIC [1] [µg/mL] | MIC (P. aeruginosa PAO1) [µg/mL] | MIC (strain 19) [µg/mL] | MIC (strain 21) [µg/mL] | MIC (E. coli J62) [µg/mL] | MIC [2] [µg/mL] | MIC (strain 20) [µg/mL] | MIC (E. cloacae 34654) [µg/mL] | MIC (S. pneumoniae 113) [µg/mL] | MIC (M. morganii 126/3048) [µg/mL] | MIC (C. freundii K21/3034) [µg/mL] |
| --- | --- | --- | --- | --- | --- | --- | --- | --- | --- | --- | --- | --- | --- | --- | --- | --- |
| C[C@H]1[C@H](NC(=O)/C(=N\OCCSc2ccc(C(=N)N)cc2)c2csc(N)n2)C(=O)N1S(=O)(=O)O [Example 6, (2S,3S)-3-{[(2Z)-2-(2-Amino-1,3-thiazol-4-yl)-2-({2-[(4-carbamimidoylphenyl)sulfanyl]ethoxy}imino)acetyl]amino}-2-methyl-4-oxoazetidine-1-sulfonic acid] | 32 (≈ 60.7 µM) | 16 (≈ 30.3 µM) | 0.125 (≈ 0.237 µM) | 1 (≈ 1.9 µM) | 0.25 (≈ 0.474 µM) | 8 (≈ 15.2 µM) | 4 (≈ 7.58 µM) | 0.25 (≈ 0.474 µM) | 0.25 (≈ 0.474 µM) | 0.25 (≈ 0.474 µM) | 16 (≈ 30.3 µM) | 0.25 (≈ 0.474 µM) | 0.125 (≈ 0.237 µM) | 4 (≈ 7.58 µM) | ≤ 0.125 | ≤ 0.125 |
| CC1(C)[C@H](NC(=O)/C(=N\OCCOc2ccc(C(=N)N)c(O)c2)c2csc(N)n2)C(=O)N1OS(=O)(=O)O [Example 1, (2Z)-2-(2-Amino-1,3-thiazol-4-yl)-2-{[2-(4-carbamimidoyl-3-hydroxyphenoxy)ethoxy]imino}-N-[(3S)-2,2-dimethyl-4-oxo-1-(sulfooxy)azetidin-3-yl]ethanamide] | 8 (≈ 14.3 µM) | 16 (≈ 28.7 µM) | 0.25 (≈ 0.448 µM) | 8 (≈ 14.3 µM) | 0.25 (≈ 0.448 µM) | 8 (≈ 14.3 µM) | 4 (≈ 7.17 µM) | 0.25 (≈ 0.448 µM) | 0.25 (≈ 0.448 µM) | 0.25 (≈ 0.448 µM) | 4 (≈ 7.17 µM) | 0.25 (≈ 0.448 µM) | 0.5 (≈ 0.897 µM) | 16 (≈ 28.7 µM) | 0.125 (≈ 0.224 µM) | 0.5 (≈ 0.897 µM) |
| CC1(C)[C@H](NC(=O)/C(=N\OCCOc2ccc(C(=N)N)nn2)c2csc(N)n2)C(=O)N1OS(=O)(=O)O [Example 29, (2Z)-2-(2-Amino-1,3-thiazol-4-yl)-2-({2-[(6-carbamimidoylpyridazin-3-yl)oxy]-ethoxy}imino)-N-[(3S)-2,2-dimethyl-4-oxo-1-(sulfooxy)azetidin-3-yl]ethanamide] | 8 (≈ 14.7 µM) | 8 (≈ 14.7 µM) | 0.25 (≈ 0.46 µM) | 2 (≈ 3.68 µM) | 0.25 (≈ 0.46 µM) | 16 (≈ 29.4 µM) | 8 (≈ 14.7 µM) | 0.5 (≈ 0.92 µM) | 0.5 (≈ 0.92 µM) | 0.5 (≈ 0.92 µM) | 8 (≈ 14.7 µM) | 0.5 (≈ 0.92 µM) | 0.5 (≈ 0.92 µM) | 4 (≈ 7.36 µM) | 0.25 (≈ 0.46 µM) | 0.25 (≈ 0.46 µM) |
| C[C@@H]1[C@H](NC(=O)/C(=N\OCCOc2ccc(C(=N)N)cc2)c2csc(N)n2)C(=O)N1OS(=O)(=O)O [Example 10, (2Z)-2-(2-Amino-1,3-thiazol-4-yl)-2-{[2-(4-carbamimidoylphenoxy)ethoxy]imino}-N-[(2R,3S)-2-methyl-4-oxo-1-(sulfooxy)azetidin-3-yl]ethanamide] | – | – | 0.5 (≈ 0.948 µM) | 8 (≈ 15.2 µM) | 2 (≈ 3.79 µM) | 8 (≈ 15.2 µM) | 8 (≈ 15.2 µM) | 0.5 (≈ 0.948 µM) | 0.5 (≈ 0.948 µM) | 0.5 (≈ 0.948 µM) | – | 0.5 (≈ 0.948 µM) | 1 (≈ 1.9 µM) | 2 (≈ 3.79 µM) | 4 (≈ 7.58 µM) | 1 (≈ 1.9 µM) |
